Data set [1] can be described thus: Measurement of solubility. The data set is classed as physicochemical. The note with it: methyl benzoate (solvent), room temperature, ultrasonic waves. As for the experimental part: 50 milligrams (mg) of Compound 1 and 500 mg of methyl benzoate (solvent) were added to a colorless sample bottle, ultrasonic waves were irradiated thereon at room temperature for 5 minutes, and the presence or absence of Compound 1 was visually confirmed. […] When Compound 1 remains, a small amount of a solvent was added thereto, the irradiation of ultrasonic waves was repeated, and an amount of the solvent was measured until Compound 1 was completely dissolved. The solubility was measured from the amount of the solvent finally used. The solubility values of Compounds 3 and C1 were calculated in the same manner.

Data set [2] is described as follows: Measurement of triplet energy level. The data set is classed as physicochemical. The following applies: spin-coated film of about 50 nm from 3 weight % toluene solution; PL spectrum at 77 K, peak of shortest wavelength. As for the experimental part:
Compound 1 was dissolved in toluene to a concentration of 3 weight % to prepare a solution. The same applied to Compounds 3 and C1 to prepare solutions. The solutions were spin-coated at a rotational speed of 1,600 revolutions per minute (rpm) and dried on a hot plate at a temperature of 120° C. for 15 minutes to obtain films (samples) having a thickness (film thickness after dry) of about 50 nanometers (nm). The samples were cooled to a temperature of 77 Kelvins (K) (−196° C.) and photoluminescence (PL) spectrums were obtained. The triplet energy levels (electron volts, eV) were calculated at the peak values of the shortest wavelengths of the PL spectrums.

Each structure is given as a SMILES string. Bounds are passed on as bounds.

With `c1ccc(-c2cccc(-c3cccc(-c4cccc5c4-c4ccccc4C54c5ccccc5-c5c(-c6cccc(-c7cccc(-c8ccccc8)c7)c6)cccc54)c3)c2)cc1` [Compound 1], the Solubility in data set [1] is reported as 7 weight %. For the same compound, the Triplet energy level in data set [2] turned out to be 2.96 eV.

As to `c1ccc(-c2cc(-c3ccccc3)cc(-c3cccc(-c4cccc5c4-c4ccccc4C54c5ccccc5-c5c(-c6cccc(-c7cc(-c8ccccc8)cc(-c8ccccc8)c7)c6)cccc54)c3)c2)cc1` [Compound 3], the Solubility in data set [1] came out at 9 weight %. The Triplet energy level in data set [2] is recorded as 2.96 eV.

As for `c1ccc(-c2cccc(-c3cccc(-c4ccc5c(c4)C4(c6ccccc6-5)c5ccccc5-c5ccc(-c6cccc(-c7cccc(-c8ccccc8)c7)c6)cc54)c3)c2)cc1` [Compound C1], the Solubility in data set [1] was 2 weight %. The Triplet energy level in data set [2] came out at 2.81 eV.

The compound `c1ccc(-c2nc(-c3ccccc3)nc(-c3cccc(-c4cccc(-c5cccc6c5-c5ccccc5C65c6ccccc6-c6c(-c7ccccc7)cccc65)c4)c3)n2)cc1` (centres unmarked) [Compound C2] displayed a Solubility in data set [1] of under 1 weight %. Besides, in data set [2], the Triplet energy level came out at 2.91 eV.
